Paper PMC10108821, “Three tyrosine kinase inhibitors cause cardiotoxicity by inducing endoplasmic reticulum stress and inflammation in cardiomyocytes” (BMC Medicine, 2023)

How the values were obtained:
patients = conditions: cited from earlier work; for level of cardiotoxicity based on literature reports: ref Table S1, 2, 4, 26–36
rat left ventricles = experiment: Rat gavage cardiotoxicity model: qRT-PCR in left ventricles; format: in vivo
[1] = FDA adverse event reporting system (FAERS) analysis, reporting odds ratios; conditions: July 2014 to December 2020
NRCMs [2] = conditions: 24-h treatment; 10 µM afatinib, 10 µM sorafenib, 5.62 µM ponatinib
Method: After treatment, cells were stained with 5 μg/mL Propidium iodide (Sigma-Aldrich) mixed with Hoechst33342 (Solarbio) in Phenol red-free DMEM (Procell) in a 5% CO2 incubator at 37°C for 30 minutes. Images of PI staining were acquired through the filter Ex/Em=555/624nm and of the nuclei staining through the filter Ex/Em=405/452 using ImageXpress Micro Confocal-AWES (Molecular Devices).

NRCMs [3] = experiment: Mitochondrial membrane potential by TMRE staining; format: cell-based, rat; conditions: 24 h of treatment
ER stress genes in NRCMs = experiment: qRT-PCR of ER stress genes in NRCMs; format: cell-based, rat; conditions: for temporal activation of ER stress genes, 72 versus 24 h: afatinib 5.62 µM, sorafenib 3.16 μM, ponatinib 1.78 μM; for relative activation of the three UPR branches: high-dose treatment
Method: Rats were euthanized by decapitation and thoracic cavity was opened with scissors and hearts were popped out of the opening gently with fingers. Hearts were clipped and put in HBSS immediately; 20–40 hearts were collected into one sterile vial containing a magnetic stir bar and 1 mL digestive media made of 0.1% trypsin (Macklin) and 0.05% collagenase (Gibco) in HBSS. Hearts were minced until they were uniform in size. Digestive media was added to 10 mL for 40 hearts and stirred gently for 6 min. Supernatant was discarded and the digestion was repeated once; 10 mL digestive media was added and stirred gently for 10 min. The supernatant with cells were collected and the digestion and collection were repeated 4 times. Cells were centrifuged at 1200 rpm for 5 min, resuspended in media (Dulbecco’s modified Eagleʼs medium (Gibco)) with 10% fetal bovine serum (FBS; VISTECH), 1% penicillin–streptomycin, and 1% 0.1 M 5-bromo-2-deoxyuridine solution (Shanghai Yuanye) and filtered through a 40-μm cell strainer. Cells were seeded on a 100-mm plastic dish and cultured in a 5% CO2 incubator at 37 °C for 2 h to allow non-myocytes to adhere to the plate. The dish was swirled and media gently pipetted up and down to detach lightly attached cardiomyocytes. […] All drug treatments were performed after this media change.
RNA was isolated based on a standard protocol using TRIzol reagent (Vazyme). TRIzol (1ml per 1 well of a 6-well plate) was used to lyse cells and chloroform was added for RNA separation. Samples were shaked vigorously by hand for 15 seconds and incubated at room temperature for 2-3 minutes. RNA was present in the aqueous phase after centrifuge at 12000 x g for 15 minutes. Isopropyl alcohol was mixed to precipitate RNA from the aqueous phase. […] 1 μg total RNA was used for cDNA synthesis using a reverse transcription kit (Bioman). We then measured expression of genes of interest with SYBRR Green qPCR Mix (Bioman) using Applied Biosystems 7500 Quantitative PCR Instrument. Gene expression was normalized to the 18S ribosomal RNA expression and primers were listed in Primers Table.

Cor.4U hiPSC-CMs [4] = experiment: 3'DGE-UMI RNAseq transcriptome of hiPSC-CMs; conditions: for expression of genes associated with ER stress (ATF4, NUPR1, DDIT3, TRIB3, CHAC1, SESN2, HERPUD1) / expression of genes related to cardiomyopathy and sarcomeric structure (MYH7, SYNPO2L, LDB3, ACTN2, MYLK3): high PC1 loadings, ponatinib at high dose
NRCMs [5] = experiment: Calcium staining with Calbryte 520 AM; format: cell-based, rat; conditions: 0.5 and 1 h; 10 µM afatinib, 10 µM sorafenib, 5.62 µM ponatinib
Sprague-Dawley rats = experiment: Rat gavage cardiotoxicity model: survival, heart and body weight
HELP hiPSC-CMs = experiment: CardioExcyte 96 microelectrode array: base impedance and extracellular field potential; format: cell-based, human; conditions: fixed doses: 10 µM, crizotinib and ponatinib 3.16 µM; up to 24 h
Method: HELP hiPSC-CMs were seeded evenly into the 96-well microelectrode array, NSP-96 0.6mm sensor plate (Nanion technologies), at 50,000 cells per well. Measurements were started after 3-5 days of culture of these cells and until the impedance and the extracellular field potential are stable. Measurements were taken a few times before drug addition, and every 30~60 minutes after the drugs were added at 2x concentration. Values were averaged from 3 wells per group. Beat rate, amplitude of impedance, base impedance and FPDc were calculated by the Cardio Excyte Control 96 software package (Nanion Technologies).

Cor.4U hiPSC-CMs [6] = experiment: ATP level (CellTiter-Glo) in hiPSC-CMs; format: cell-based, human; conditions: for effect on ATP levels: 0.32 to 10 µM, day 1 to day 5; for dose-dependent toxicity (ATP fold changes): day 1, different doses
Method: ATP content was measured using the CellTiter-Glo Luminescent Cell Viability Assay (Promega) following the manufacturer’s protocol. After adding CellTiter-Glo reagents and incubation, luminescence was quantified using a Synergy H1 plate reader (BioTek Instruments). ATP standards were prepared from 0.01 to 5 μM. For each drug, we fitted a four-parameter log-logistic model to calculate ED50 at day 5 (Fig S1). To rank the cellular toxicity of the eight TKIs (Fig 1T), we calculated (EC50-Cmax)/(EC50+Cmax) and arranged from the smallest to the biggest for increasing cellular toxicity.

[7] = system: Phospho-eIF2α, XBP1s, ATF6 (cleaved); experiment: Western blot of ER stress effectors in NRCMs; format: cell-based, rat
NRCMs [8] = experiment: Seahorse assay: oxygen consumption and extracellular acidification; format: cell-based, rat; conditions: 24 h; fixed doses: 10 µM, crizotinib and ponatinib 3.16 µM
Method: Rats were euthanized by decapitation and thoracic cavity was opened with scissors and hearts were popped out of the opening gently with fingers. Hearts were clipped and put in HBSS immediately; 20–40 hearts were collected into one sterile vial containing a magnetic stir bar and 1 mL digestive media made of 0.1% trypsin (Macklin) and 0.05% collagenase (Gibco) in HBSS. Hearts were minced until they were uniform in size. Digestive media was added to 10 mL for 40 hearts and stirred gently for 6 min. Supernatant was discarded and the digestion was repeated once; 10 mL digestive media was added and stirred gently for 10 min. The supernatant with cells were collected and the digestion and collection were repeated 4 times. Cells were centrifuged at 1200 rpm for 5 min, resuspended in media (Dulbecco’s modified Eagleʼs medium (Gibco)) with 10% fetal bovine serum (FBS; VISTECH), 1% penicillin–streptomycin, and 1% 0.1 M 5-bromo-2-deoxyuridine solution (Shanghai Yuanye) and filtered through a 40-μm cell strainer. Cells were seeded on a 100-mm plastic dish and cultured in a 5% CO2 incubator at 37 °C for 2 h to allow non-myocytes to adhere to the plate. The dish was swirled and media gently pipetted up and down to detach lightly attached cardiomyocytes. The collected myocytes were seeded in the same media described before; 48 h after plating, medium was exchanged to fresh DMEM (Gibco) with or without 2% FBS. All drug treatments were performed after this media change.
NRCMs were seeded evenly into the Seahorse XF96 cell culture plates (Agilent) and cultured in DMEM high glucose with 2% FBS. About 2 hours before the test, cells were moved to a non-CO2 incubator at 37 ° C and incubated for 1 hour. 1 hour prior to the test, culture media was replaced with the Seahorse Basal DMEM at 37°C (with appropriate concentration of glucose, 4mM L-glutamine, 1 mM sodium pyruvate and 1% penicillin-streptomycin solution) and incubated in a non-CO2 incubator at 37°C for 1 hour. Drugs were prepared at 8x to 10x concentrations with the corresponding seahorse media as in each well and added into ports of Seahorse XF96 cartridge plates which have been hydrated overnight. XFe96 Extracellular Flux Analyzer (Agilent) was used to measure oxygen consumption rate and extracellular acidification rate of cells with different drug treatments.

NRCMs [9] = experiment: Lipid peroxidation by C11-bodipy 581/591 and flow cytometry
Method: (§1) For ROS assessment, cells were washed with PBS once and stained with 10μM H2DCFHDA (MCE) in phenol red-free DMEM (Procell) in a humid incubator with 5% CO2 at 37°C for 30 minutes. Cells were washed with PBS twice and dissociated to single cells before flow cytometry analysis at the FITC channel. For lipid peroxidation measurement, cells were washed with PBS once and stained with 2μM C11-bodipy^581/591 (Cayman) in phenol red-free DMEM (Procell) in a humid incubator with 5% CO2 at 37°C for 30 minutes. Cells were washed with PBS twice and dissociated to single cells before flow cytometry analysis at both the FITC and the PE channels. Fluorescence of the oxidized C11-bodipy were acquired through the FITC channel (Ex/Em=488/520nm) and that of the non-oxidized C11-bodipy through the PE channel (Ex/Em=555/624nm).

[10] = in vivo; cited from earlier work
NRCMs [11] = experiment: ROS by H2DCFDA staining and flow cytometry; conditions: 3 h; 10 µM afatinib, 10 µM sorafenib, 5.62 µM ponatinib
Method: as §1

[12] = Sprague-Dawley, rat, 24 h, 10 µM

Structure (SMILES)	level of cardiotoxicity based on literature reports (patients)	temporal activation of ER stress genes, 72 versus 24 h (ER stress genes in NRCMs)	relative activation of the three UPR branches (ER stress genes in NRCMs; 24 h)	expression of genes associated with ER stress (ATF4, NUPR1, DDIT3, TRIB3, CHAC1, SESN2, HERPUD1) (Cor.4U hiPSC-CMs [4])	expression of genes related to cardiomyopathy and sarcomeric structure (MYH7, SYNPO2L, LDB3, ACTN2, MYLK3) (Cor.4U hiPSC-CMs [4])	cytosolic calcium concentration (NRCMs [5])	effect on beat rate, contraction, base impedance and corrected field potential duration (HELP hiPSC-CMs)	effect on ATP levels (Cor.4U hiPSC-CMs [6])	dose-dependent toxicity (ATP fold changes) (Cor.4U hiPSC-CMs [6]; RNAseq conditions)	duration of activated eIF2α phosphorylation [7] [h]	basal oxygen consumption rate (OCR) (NRCMs [8])	also measured
Cc1ccc(C(=O)Nc2ccc(CN3CCN(C)CC3)c(C(F)(F)F)c2)cc1C#Cc1cnc2cccnn12 [ponatinib]	high-levels of cardiotoxicity	the ATF4 and the ATF6 axes, but not XBP1s, showed time-dependent upregulation	induced activation of three axes to similar degrees	upregulated	downregulated	did not cause any significant changes in calcium concentration	reduced beat rate and corrected field potential duration	dose-dependent and time-dependent reduction in ATP levels	dose-dependent toxicity	24	trend of inhibiting basal oxygen consumption rate (OCR)	incidence of arterial occlusion events (patients): 26%; Dnajb9 expression (rat left ventricles; day 7, 15 mg/kg): significantly increased; gene expression of Anp (rat left ventricles; ponatinib 15 mg/kg, sorafenib 50 mg/kg gavage, 3 or 7 days): significant increase; cardiotoxicity events in FAERS, reporting odds ratios (RORs) [1]: caused the most cardiotoxicity with significant reporting odds ratios (RORs); cell death (NRCMs [2]): very little cell death; mitochondrial membrane potential (NRCMs [3]): trend of decreasing mitochondrial membrane potentials; expression of Dnajb9 (ER stress genes in NRCMs; 24 h): most robust upregulation of Dnajb9 among the 3 TKIs; expression of Herpud1 (ER stress genes in NRCMs; 24 h): most induced; expression of tRNA aminoacylation gene markers (SARS, GARS) (Cor.4U hiPSC-CMs [4]; Cluster 3): increased; expression of genes associated with heart contraction (Cor.4U hiPSC-CMs [4]; Cluster 4, day 3 or day 5): upregulated; death of animals (Sprague-Dawley rats; 15 mg/kg gavage once daily, 3 or 7 days): one rat died; heart or body weight (Sprague-Dawley rats; day 7, ponatinib 15 mg/kg, sorafenib 50 mg/kg gavage once daily): decreased; maximal, spare and non-mitochondrial oxygen consumption (NRCMs [8]): inhibited maximal, spare, and non-mitochondrial oxygen consumption significantly
CN(C)C/C=C/C(=O)Nc1cc2c(Nc3ccc(F)c(Cl)c3)ncnc2cc1O[C@H]1CCOC1 [afatinib]	low cardiotoxicity	higher expression of Atf4, but a lower expression of Xbp1s and Atf6 at 72- than 24-h treatment	activated the ATF4 axis more robustly than the XBP1s and the ATF6 axes	upregulated	downregulated	did not cause any significant changes in calcium concentration	reduced beat rate and corrected field potential duration	dose-dependent and time-dependent reduction in ATP levels	dose-dependent toxicity	12	trend of inhibiting basal oxygen consumption rate (OCR)	change in percent of cells with high lipid peroxidation (NRCMs [9]): increased slightly; level of lipid peroxidation, TKI alone (NRCMs [9]; [12]): 92.5%; level of lipid peroxidation, TKI with trolox (NRCMs [9]; [12]): 83%; EC50 on cells relative to Cmax in vivo (Cor.4U hiPSC-CMs [6]): ~ 60 folds; time-dependent toxicity (ATP fold changes) (Cor.4U hiPSC-CMs [6]; fixed dose over 5 days, RNAseq conditions): increasing toxicity with treatment duration; Cmax [10]: 50 nM; increase in percent of ROS-high cells (NRCMs [11]): 14.1%
